Experimental findings from ChEMBL document CHEMBL1142208, “Protection of mice from lethal Escherichia coli infection by chimeric human bactericidal/permeability-increasing protein and immunoglobulin G1 Fc gene delivery” (2007) are described below.

Structures are written as SMILES.

Assay [1] has as its system Mus musculus. Description: Mortality rate of BALB/c mouse infected with Escherichia coli O111:B4 at 25 ug, im within 48 hrs. The format is functional.
Assay [2] has as its system Mus musculus. Briefly: Survival rate of BALB/c mouse infected with Escherichia coli O111:B4 at 25 ug, im within 48 hrs. The class given is functional.

Consider `CO/N=C(\C(=O)N[C@@H]1C(=O)N2C(C(=O)O)=C(COC(N)=O)CS[C@H]12)c1ccco1` [CEFUROXIME], for which the Survival is reported as 91.4% in assay [1] and 5% in assay [2].
